Values of other authors, collected in patent publication US7799547B2, “Purified polypeptides from Staphylococcus aureus” (Affinium Pharmaceuticals, Inc., priority 2003, dated 2010).

Experiments:
MRSA strain WCUH29 = conditions: rat, oral administration at 50 mg/kg
[1] = system: panel of clinical isolates of S. aureus; conditions: clinical isolates of S. aureus resistant to different classes of antibiotics
E. coli FabI = E. coli FabI (Escherichia coli, UniProt P0AEK4)
S. aureus FabI = S. aureus FabI (Staphylococcus aureus, UniProt Q6GI75)
Sequence of S. aureus FabI (Q6GI75 whole entry): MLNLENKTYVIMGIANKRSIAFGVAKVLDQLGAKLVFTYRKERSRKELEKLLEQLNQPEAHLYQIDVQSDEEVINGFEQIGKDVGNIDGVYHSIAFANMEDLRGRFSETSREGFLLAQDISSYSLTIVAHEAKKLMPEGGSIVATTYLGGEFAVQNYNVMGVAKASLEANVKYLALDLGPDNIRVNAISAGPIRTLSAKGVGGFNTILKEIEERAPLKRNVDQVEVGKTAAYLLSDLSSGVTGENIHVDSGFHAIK

Sequence of E. coli FabI (P0AEK4 whole entry): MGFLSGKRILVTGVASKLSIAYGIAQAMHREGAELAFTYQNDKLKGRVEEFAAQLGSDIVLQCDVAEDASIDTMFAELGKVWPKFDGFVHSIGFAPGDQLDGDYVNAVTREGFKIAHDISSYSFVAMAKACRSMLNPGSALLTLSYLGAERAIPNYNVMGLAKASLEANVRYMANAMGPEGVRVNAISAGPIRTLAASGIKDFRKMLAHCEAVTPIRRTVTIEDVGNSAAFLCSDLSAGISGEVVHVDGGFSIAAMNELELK

SMILES | Reduction in bacterial counts relative to untreated controls (MRSA strain WCUH29) [log] | MIC90 fold lower than those of the commercial antibiotics tested [1] [fold] | Inhibition of E. coli FabI (E. coli FabI) | Inhibition of S. aureus FabI (S. aureus FabI)
Cc1[nH]c2ccccc2c1CN(C)C(=O)/C=C/c1cnc2c(c1)CCC(=O)N2 [API-1135] | 3.5 | > 500 |  | 
Oc1c(Cl)cc(Cl)c(Cl)c1Cc1c(O)c(Cl)cc(Cl)c1Cl [hexachlorophene] |  |  | inhibited | inhibited
Oc1cc(Cl)ccc1Oc1ccc(Cl)cc1Cl [triclosan] |  |  | inhibited | inhibited
